Values belong to the compound of their own block, whether it stands above or below them.
What was measured:
[1] = system: Human immunodeficiency virus 1; assay: Antiviral activity against HIV-1 NL4-3 infected in human MT4 cells assessed as reduction in p24 production treated at 48 hrs post-infection and measured on day 4 post-viral infection by ELISA; format: functional, organism-based; conditions: Human immunodeficiency virus 1, NL4-3, MT4
MDA-MB-231 = assay: Antiproliferative activity against human MDA-MB-231 cells assessed as reduction in cell viability measured after 72 hrs by SRB assay; format: functional, cell-based; conditions: MDA-MB-231, 72 h
KB = assay: Antiproliferative activity against human KB cells assessed as reduction in cell viability measured after 72 hrs by SRB assay; format: functional, cell-based
MT4 = assay: Cytotoxicity against human MT4 cells assessed as reduction in cell viability by CellTiter-Glo luminescence assay; format: cell-based
A549 = assay: Antiproliferative activity against human A549 cells assessed as reduction in cell viability measured after 72 hrs by SRB assay; conditions: A549, 72 h
[2] = Antiproliferative activity against human KB-VIN cells assessed as reduction in cell viability after 72 hrs by SRB assay; format: functional, cell-based; conditions: KBVIN
MCF7 = assay: Antiproliferative activity against human MCF7 cells assessed as reduction in cell viability measured after 72 hrs by SRB assay; format: functional, cell-based; conditions: MCF7, 72 h
[3] = Selectivity index, ratio of CC75 for cytotoxicity against human MT4 cells to IC50 for antiviral activity against HIV-1 NL4-3 infected in human MT4 cells; format: toxicity, cell-based; conditions: read-out: Selectivity Index

Compound: CC(=O)O[C@@H]1[C@@H](C)[C@@]2(O)[C@@H](C=C(CO)C[C@]3(O)C(=O)C(C)=C[C@@H]23)[C@@H]2C(C)(C)[C@]12OC(C)=O
IC50 [1]: 1.36 µM | IC50 (MDA-MB-231): 8.91 µM | IC50 (KB): > 10 µM | CC75 (MT4): > 10 µM | IC50 (A549): 7.49 µM | IC50 [2]: > 10 µM | IC50 (MCF7): > 10 µM

Compound: CC(=O)OCC1=C[C@H]2[C@@H]3C(C)(C)[C@]3(OC(C)=O)[C@H](O)[C@@H](C)[C@]2(O)[C@@H]2C=C(C)C(=O)[C@@]2(O)C1
CC75 (MT4): > 5 µM

Compound: CC(=O)OCC1=C[C@H]2[C@@H]3C(C)(C)[C@]3(OC(C)=O)[C@H](OC(C)=O)[C@@H](C)[C@]2(O)[C@@H]2C=C(C)C(=O)[C@@]2(O)C1
IC50 [1]: > 10 µM | IC50 (MDA-MB-231): > 10 µM | IC50 (KB): > 10 µM | CC75 (MT4): > 5 µM | IC50 (A549): > 10 µM | IC50 [2]: > 10 µM | IC50 (MCF7): > 10 µM

Compound: CC/C=C/C/C=C/C/C=C/C/C=C/C/C=C/CCCC(=O)OCC1=C[C@H]2[C@@H]3C(C)(C)[C@]3(OC(=O)CCC/C=C/C/C=C/C/C=C/C/C=C/C/C=C/CC)[C@H](O)[C@@H](C)[C@]2(O)[C@@H]2C=C(C)C(=O)[C@@]2(O)C1
IC50 [1]: 2.23 µM | IC50 (MDA-MB-231): > 10 µM | IC50 (KB): > 10 µM | CC75 (MT4): > 5 µM | IC50 (A549): > 10 µM | IC50 [2]: > 10 µM | IC50 (MCF7): > 10 µM

Compound: CCCC(=O)OCC1=C[C@H]2[C@@H]3C(C)(C)[C@]3(OC(=O)CCC)[C@H](OC(=O)/C=C/c3ccc(OC(C)=O)c(OC)c3)[C@@H](C)[C@]2(O)[C@@H]2C=C(C)C(=O)[C@@]2(O)C1
IC50 [1]: > 10 µM | IC50 (MDA-MB-231): 6.06 µM | IC50 (KB): 8.54 µM | IC50 (A549): 3.71 µM | IC50 [2]: 12.6 µM | IC50 (MCF7): 9.32 µM

Compound: CC/C=C/C/C=C/C/C=C/C/C=C/C/C=C/CCCC(=O)O[C@@H]1[C@@H](C)[C@@]2(O)[C@@H](C=C(CO)C[C@]3(O)C(=O)C(C)=C[C@@H]23)[C@@H]2C(C)(C)[C@]12OC(=O)CCC/C=C/C/C=C/C/C=C/C/C=C/C/C=C/CC
IC50 [1]: 0.11 µM | IC50 (MDA-MB-231): > 10 µM | IC50 (KB): > 10 µM | CC75 (MT4): > 5 µM | IC50 (A549): > 10 µM | IC50 [2]: > 10 µM | IC50 (MCF7): > 10 µM

Now from value to compound, other results behind:

IC50 [1]: 0.362 µM | IC50 (MDA-MB-231): > 10 µM | IC50 (KB): > 10 µM | IC50 (A549): > 10 µM | IC50 (MCF7): > 10 µM
Compound: COc1cc(/C=C/C(=O)O[C@@H]2[C@@H](C)[C@@]3(O)[C@@H](C=C(CO)C[C@]4(O)C(=O)C(C)=C[C@@H]34)[C@@H]3C(C)(C)[C@]23OC(C)=O)ccc1O
CC75 (MT4): > 5 µM | IC50 [2]: > 10 µM

IC50 [1]: > 10 µM | IC50 (MDA-MB-231): 10.1 µM | IC50 (KB): > 40 µM | IC50 (A549): > 10 µM | IC50 (MCF7): > 10 µM
Compound: CC/C=C/C/C=C/C/C=C/C/C=C/C/C=C/CCCC(=O)OCC1=C[C@H]2[C@@H]3C(C)(C)[C@]3(OC(=O)CCC/C=C/C/C=C/C/C=C/C/C=C/C/C=C/CC)[C@H](OC(=O)CCC/C=C/C/C=C/C/C=C/C/C=C/C/C=C/CC)[C@@H](C)[C@]2(O)[C@@H]2C=C(C)C(=O)[C@@]2(O)C1
CC75 (MT4): > 5 µM | IC50 [2]: > 40 µM

IC50 [1]: > 10 µM | IC50 (MDA-MB-231): > 10 µM | IC50 (KB): > 10 µM | IC50 (A549): > 10 µM | IC50 (MCF7): > 10 µM
Compound: CC1=C[C@H]2[C@@]3(O)[C@H](C)[C@@H](OC(=O)/C=C/c4ccccc4)[C@]4(OC(=O)/C=C/c5ccccc5)[C@H]([C@@H]3C=C(COC(=O)/C=C/c3ccccc3)C[C@]2(O)C1=O)C4(C)C
CC75 (MT4): > 5 µM | IC50 [2]: > 10 µM

IC50 [1]: 0.408 µM | IC50 (MDA-MB-231): > 10 µM | IC50 (KB): > 10 µM | IC50 (A549): > 10 µM | IC50 (MCF7): > 10 µM
Compound: C/C=C/C(=O)O[C@@H]1[C@@H](C)[C@@]2(O)[C@@H](C=C(CO)C[C@]3(O)C(=O)C(C)=C[C@@H]23)[C@@H]2C(C)(C)[C@]12OC(=O)/C=C/C
CC75 (MT4): > 10 µM | IC50 [2]: > 10 µM

IC50 [1]: > 10 µM | IC50 (MDA-MB-231): > 10 µM | IC50 (KB): > 10 µM | IC50 (A549): > 10 µM | IC50 (MCF7): > 10 µM
Compound: CCCCCCCCCCCCCCCCCCCC(=O)O[C@@H]1[C@@H](C)[C@@]2(O)[C@@H](C=C(CO)C[C@]3(O)C(=O)C(C)=C[C@@H]23)[C@@H]2C(C)(C)[C@]12OC(=O)CCCCCCCCCCCCCCCCCCC
CC75 (MT4): > 5 µM | IC50 [2]: > 10 µM

IC50 [1]: 0.00046 µM | IC50 (MDA-MB-231): > 10 µM | IC50 (KB): > 10 µM | IC50 (A549): > 10 µM | IC50 (MCF7): > 10 µM
Compound: CC/C=C/C/C=C/C/C=C/C/C=C/C/C=C/CCCC(=O)O[C@@H]1[C@@H](C)[C@@]2(O)[C@@H](C=C(CO)C[C@]3(O)C(=O)C(C)=C[C@@H]23)[C@@H]2C(C)(C)[C@]12OC(C)=O
selectivity ratio [3]: > 10000 | CC75 (MT4): > 5 µM | IC50 [2]: > 10 µM

Source: ChEMBL document CHEMBL4808236, “New phorbol ester derivatives as potent anti-HIV agents” (Bioorg Med Chem Lett, 2021)
